One data set concerns SINV. Nature of the data set: CPE reduction assay, SINV. As to conditions: VeroE6 cells, MOI 0.025.
For another data set, the system named is CHIKV. In words: CPE reduction assay, CHIKV.
A further data set has as its system VeroE6 cells. In words: Cytotoxicity in uninfected cells (MTS/PMS) of the CPE reduction assay.
For a further data set, the system named is SFV. Nature of the data set: CPE reduction assay, SFV.
In another data set the test system is rCHIKV mutants. In words: microbe, parasite or virus in culture. It counts as cell-based, Chikungunya virus. As to conditions: for Fold resistance: EC50 mutant/EC50 wt.
For data set [1], the target named is host enzyme SAH hydrolase. Also noted: method as in PMID 26010585. As to conditions: in vitro; read-out: 50% inhibitory concentration, SAH hydrolase; cited from earlier work.
A further data set concerns the target T1, wt SFV nsP1 (Semliki forest virus, UniProt P08411).
T1 sequence (P08411 1-537): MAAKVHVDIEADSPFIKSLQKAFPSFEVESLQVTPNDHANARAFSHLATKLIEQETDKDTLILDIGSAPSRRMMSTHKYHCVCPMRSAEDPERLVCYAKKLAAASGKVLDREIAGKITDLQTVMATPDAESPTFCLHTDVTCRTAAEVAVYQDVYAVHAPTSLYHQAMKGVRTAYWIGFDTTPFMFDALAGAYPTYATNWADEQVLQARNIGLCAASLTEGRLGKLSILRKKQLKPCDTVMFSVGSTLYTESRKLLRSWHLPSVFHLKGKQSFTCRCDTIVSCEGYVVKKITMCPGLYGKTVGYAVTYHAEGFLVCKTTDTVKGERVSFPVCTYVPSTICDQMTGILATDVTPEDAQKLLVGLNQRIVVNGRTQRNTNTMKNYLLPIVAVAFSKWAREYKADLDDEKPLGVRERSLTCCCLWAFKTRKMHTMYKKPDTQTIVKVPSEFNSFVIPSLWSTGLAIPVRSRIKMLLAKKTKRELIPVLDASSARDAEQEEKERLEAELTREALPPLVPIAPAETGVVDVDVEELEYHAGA
Nature of the data set: nsP1 enzymatic activity assay (m7GMP-nsP1 intermediate formation), wt.

In a further data set the target is T2, SFV nsP1 K231R+K300E (Semliki forest virus, UniProt P08411, K231R/K300E).
T2 sequence (P08411 1-537 K231R/K300E): T1 sequence (P08411 1-537) with K231R, K300E
It counts as biochemical. As to conditions: 0 to 1 mM, 10 μM SAM, normalized to untreated control.

The mark [2] stands for this setting: Chikungunya virus, Vero C1008, read-out: Mean EC50 ± SD.
Where [3] appears, read: Chikungunya virus, read-out: Mean EC50 ± SD.
Where [4] appears, read: rCHIKV nsP1-G230R + nsP1-K299E + nsP3-*524R.
[5] abbreviates: rCHIKV nsP1-G230R + nsP1-K299E + nsP3-*524R, read-out: Mean EC50 ± SD.
Setting [6] is: rCHIKV nsP1-G230R + nsP1-K299E, read-out: Mean EC50 ± SD.
Where [7] appears, read: rCHIKV nsP1-R171Q, read-out: Mean EC50 ± SD.

Positions count from the first letter of the chain named. “Also recorded” adds a separate entry of the source. Where two headings read alike, the source gives them in different places.

As to 6′-β-fluoro-homoaristeromycin [FHA], in the data set on SINV, the “Protection against SINV infection” value is on record as “did not confer protection”. Also, the “SI (CHIKV)” value in the data set with CHIKV (CC50/EC50) was >1,000. In addition, the EC50 with CHIKV (read-out: EC50 (CHIKV), VeroE6 cells, MOI 0.005, MTS at 96 hpi, mean ± SD) came out at 0.12 ± 0.04 µM; with SFV (read-out: EC50 (SFV), VeroE6 cells, MOI 0.025, MTS at 40 hpi, mean ± SD), 3.9 ± 3.5 µM. Also, the CC50 is above 250 µM in the data set on VeroE6 cells (read-out: CC50 (CHIKV assay), CHIKV assay format); above 250 µM with VeroE6 cells (read-out: CC50 (SFV assay), SFV assay format); above 250 µM in the data set on VeroE6 cells (read-out: CC50 (SINV assay), SINV assay format). In the data set on SFV (CC50/EC50), the “SI (SFV)” value is on record as above 64. Also, the “Resistance of rCHIKV G230R+K299E to the compound” value in the data set with rCHIKV mutants (rCHIKV G230R+K299E) is “resistant”. For the same compound, in data set [1], the IC50 was 0.37 µM.
Turning to `O=c1cnn([C@@H]2O[C@H](CO)[C@@H](O)[C@H]2O)c(=O)[nH]1` [6-Azauridine, 6-azauridine, reference compound], the EC50 is 0.3 ± 0.01 µM in the data set with rCHIKV mutants (setting [2]); 8.9 ± 3.4 µM in the data set on rCHIKV mutants (setting [3]); 0.9 ± 0.1 µM in the data set on rCHIKV mutants (setting [5]); 1.1 ± 0.1 µM in the data set on rCHIKV mutants (setting [6]); 0.8 ± 0.1 µM with rCHIKV mutants (setting [7]). In addition, the Fold resistance with rCHIKV mutants (setting [4]) is given as 4; with rCHIKV mutants (rCHIKV nsP1-G230R + nsP1-K299E) it was 4; in the data set with rCHIKV mutants (rCHIKV nsP1-R171Q) it was 3.
On to `CCc1nc2c(nnn2-c2cccc(OC(C)C)c2)c(=O)[nH]1` [MADTP-372, reference compound], for which, at wt SFV nsP1 (50 μM, 5 or 10 μM SAM), the “Effect on formation of m7GMP-nsP1 intermediate (control compound)” value is “clearly inhibited the reaction”.
`COc1c(C)c2c(c(O)c1C/C=C(\C)CCC(=O)O)C(=O)OC2` [Mycophenolic acid, mycophenolic acid, reference compound]: the half-maximal effective concentration (EC50) with rCHIKV mutants (setting [2]) came out at 0.4 ± 0.01 µM; with rCHIKV mutants (setting [3]), 6.3 ± 11.4 µM; with rCHIKV mutants (setting [5]), 0.5 ± 0.03 µM; in the data set on rCHIKV mutants (setting [6]), 1.1 ± 0.5 µM; in the data set with rCHIKV mutants (setting [7]), 4.2 ± 2.8 µM. Besides, the Fold resistance in the data set with rCHIKV mutants (setting [4]) amounted to 1; in the data set on rCHIKV mutants (rCHIKV nsP1-G230R + nsP1-K299E) it was 3; in the data set on rCHIKV mutants (rCHIKV nsP1-R171Q), 11.
As for `Nc1ncnc2c1ncn2[C@@H]1O[C@H](CSCC[C@H](N)C(=O)O)[C@@H](O)[C@H]1O` [SAH, S-adenosylhomocysteine, reference compound], the “Inhibition of mutant compared to wt SFV nsP1” value on SFV nsP1 K231R+K300E is on record as “inhibited by SAH to a similar extent; also recorded: inhibited by SAH to the same extent”. In addition, the “Inhibition of m7GMP-nsP1 formation, dose response” value at wt SFV nsP1 (0 to 1 mM, 10 μM SAM) is “inhibited in a dose-dependent manner”. The “Inhibition of m7GMP-nsP1 formation” value at wt SFV nsP1 (1 mM, 100-fold molar excess over SAM (10 μM SAM)) is “fully inhibited”.

Broadly, the EC50 is the concentration giving half of the maximal effect. For orientation: CC50 means the concentration that lowers cell viability or growth by half.

The record behind these values is PMC7179274, “6′-β-Fluoro-Homoaristeromycin and 6′-Fluoro-Homoneplanocin A Are Potent Inhibitors of Chikungunya Virus Replication through Their Direct Effect on Viral Nonstructural Protein 1” (Antimicrobial Agents and Chemotherapy, 2020).
